Measured values published in US4416871A, “Inhibition by peptides of tolerance to and physical dependence on morphine” (The United States of America as represented by the …, priority 1982, dated 1983).

Assays:
Type in all cases: in vivo
morphine-dependent mice [1] = assay: Body temperature, body weight and mortality during 3-day morphine pellet implantation with multiple peptide injections
Protocol: Male C57B1/6J, Swiss Webster, and ICR mice weighing 26±4 g (SD) were used in these studies.
(§1) The mice were randomly divided into two groups. One received SC injections of water (vehicle) while the other received the peptide under investigation (50 μg/mouse on day one). Two hours later the mice were further subdivided and each subgroup was implanted with placebo or morphine pellets. The injections of vehicle and peptide were repeated 24 and 48 hours after the first injection in their respective groups. Morphine pellets containing 75 mg of morphine free base were implanted subcutaneously (SC) between 10-11 A.M. and were removed 3 days later at the same time. The control animals were implanted with placebo pellets. Body temperature and weight were measured daily at 11 A.M. Temperature was measured using a lubricated rectal probe inserted 2.5 cm into the rectum and measured with a telethermometer (Model 43TA Yellow Springs Instrument Co., Yellow Springs, Ohio).
A similar relationship was found for the loss in body weight. Swiss Webster mice lost 16% and 14% in body weight when receiving Z-Pro-D-Leu or vehicle respectively. The C57B1/6J mice given Z-Pro-D-Leu/morphine lost 14%, while the vehicle/morphine group lost 11% in body weight during this period regardless of peptide or vehicle injections. There was one significant strain difference, i.e. a greater mortality during morphine treatment of C57B1/6J mice ([…], Binomial test).

[2] = Brain levels of morphine, fluorometric; details: Swiss Webster mice, third day of morphine treatment, n=6
Protocol: Brain levels of morphine were measured in mice which received either the peptide or vehicle injections. For these studies mice were also sacrificed on the third day following morphine implantation. The mice were then sacrificed by decapitation, brains were rapidly removed, frozen on dry ice, and stored at -80° C. until assay for morphine content. Brain morphine concentrations were determined fluorometrically (Bhargava, H. N., J. Pharma. Sci., 66, 1044-1045[1977]).

morphine-dependent mice [3] = assay: Analgesia during morphine pellet implantation: jump threshold on electrified grid; details: peptide-injected mice receiving morphine
Protocol: (§2) The level of analgesia was tested on each of the three days of the experiment. This was accomplished by measuring the jump threshold to an increasing electrical current in an electrified grid attached to a BRS/LVE #SGS-004 shock generator/scrambler (Evans, W. D., Phychopharmacol., 2, 318-325[1961]). Mice were tested only once and thereafter discarded from the experiment. When determining the effect of the peptide on overt signs of physical dependence (body temperature and weight) and tolerance (body temperature and analgesia), the peptide or vehicle was injected only once on the third day of the morphine or placebo pellet implantation (25 hours prior to the removal of the pellet).
Inhibition of development of tolerance to and physical dependence upon morphine by Z-Pro-D-Leu. The jump threshold in vehicle-injected, morphine-dependent mice decreased, indicating development of tolerance to the analgesic properties of morphine. Threshold scores were: 4.00±0.18;3.50±0.52; 2.55±0.44; on days 1-3 respectively, (n=6 for each group).

morphine-dependent mice [4] = assay: Abrupt withdrawal after pellet removal: body temperature and body weight for 10 hours (FIG. 1); details: Swiss Webster mice, any time point up to 10 hours
Protocol: FIG. 1 illustrates the inhibition of development of physical dependence (abrupt withdrawal) by Z-Pro-D-Leu. Swiss Webster mice were implanted with either morphine or placebo tablets for a period of 3 days. Following removal of the pellets, body temperature and body weight were followed for 10 hours. Panel (a) represents the change in body temperature: (Δ--Δ) Z-Pro-D-Leu/morphine; (O--O) vehicle/morphine; ( -- ) Z-Pro-D-Leu/placebo; ( -- ) vehicle/placebo. Panel (b) represents the maximal loss in body weight during the same period.
To determine the effects of peptide treatment on the development of physical dependence, the abstinence syndrome was precipitated using the morphine antagonist naloxone (Endo Laboratories Inc., N.Y.) at the appropriate dose (0.1, 0.25, or 0.50 mg/kg) injected intraperitoneally (IP) one hour following removal of morphine and placebo pellets. Pellet removal was performed 24 hours after the last peptide injection. These mice were monitored for changes in body temperature (see above) and body weight at 15 min. intervals for one hour after the naloxone injection. Effects of removing the pellets (withdrawing morphine) were also assessed by utilizing body temperature and weight as physical dependence parameters; however, these measurements were made at 2 hour intervals for 10 hours after the removal of the pellets. […]

morphine-dependent mice [5] = assay: Naloxone-precipitated withdrawal: body temperature and withdrawal signs
Protocol: as §1
To determine the effects of peptide treatment on the development of physical dependence, the abstinence syndrome was precipitated using the morphine antagonist naloxone (Endo Laboratories Inc., N.Y.) at the appropriate dose (0.1, 0.25, or 0.50 mg/kg) injected intraperitoneally (IP) one hour following removal of morphine and placebo pellets. Pellet removal was performed 24 hours after the last peptide injection. These mice were monitored for changes in body temperature (see above) and body weight at 15 min. intervals for one hour after the naloxone injection. Effects of removing the pellets (withdrawing morphine) were also assessed by utilizing body temperature and weight as physical dependence parameters; however, these measurements were made at 2 hour intervals for 10 hours after the removal of the pellets. Placebo implanted mice were treated in the same manner as the morphine pellet implanted mice.

morphine-dependent mice [6] = assay: Tolerance to hypothermic and analgesic effects of ICV morphine 24 hours after pellet removal; details: for Jump Threshold: one hr. after ICV morphine
Protocol: as §2
Tolerance to hypothermic and analgesic effects of morphine injected intracerebroventricularly (ICV) was assessed 24 hours after the removal of the pellets in mice not injected with naloxone. The ICV injection was 40 μg of morphine sulfate solution in 10 μl volume. Body temperature was recorded prior to and at 10 and 15 min. after injection of morphine. Analgesia was determined one hour after the ICV injection.

morphine-dependent mice [7] = assay: Naloxone-precipitated withdrawal: body temperature and withdrawal signs; remark: listed apart in the source
[8] = C57B1/6J, Z-Pro-D-Leu/morphine, peptide day 3 only, n=6, ICV morphine challenge
[9] = C57B1/6J, Z-Pro-D-Leu/placebo pellets, n=8, ICV morphine challenge
[10] = C57B1/6J, Z-Pro-D-Leu/placebo, peptide day 3 only, n=6, ICV morphine challenge
[11] = Swiss Webster, Z-Pro-D-Leu/morphine pellets, n=15, ICV morphine challenge
[12] = Swiss Webster, Z-Pro-D-Leu/placebo pellets, n=8, ICV morphine challenge

## Z-Pro-D-Leu
morphine-dependent mice [1]; C57B1/6J P=0.32, Swiss Webster P=0.65, Binomial test
  number of deaths, peptide/morphine compared with vehicle/morphine: no difference in the number of deaths
morphine-dependent mice [1]; Swiss Webster mice, morphine pellets, multiple injections of peptide 50 μg/mouse SC, day 3, n=14
  body temperature (X) on the third day of morphine treatment: -1.5 °C
morphine-dependent mice [1]; Swiss Webster or C57B1/6J mice receiving morphine, days 1 and 2
  body temperature on days 1 and 2 versus vehicle: no significant difference in body temperature
[2]
  brain morphine levels: 288 ± 99 µg/g
morphine-dependent mice [3]; day 1
  jump threshold score: 4.07±0.27
morphine-dependent mice [3]; day 2
  jump threshold score: 4.27±0.62
morphine-dependent mice [3]; day 3
  jump threshold score: 4.45±0.64
morphine-dependent mice [4]
  hypothermia and loss of body weight during abstinence, peptide/morphine versus the two control groups: no significant difference
morphine-dependent mice [5]; Table II, peptide 50 μg per mouse, naloxone 0.1 mg/kg
  Withdrawal, % of control (jumping, shakes, diarrhea): 9%
morphine-dependent mice [5]; Table II, peptide 50 μg per mouse, naloxone 0.1 mg/kg, mean ± SD
  Δt, °C. (difference in body temperature just prior to naloxone and 30 min. thereafter): -0.09 ± 0.58 °C
morphine-dependent mice [5]; Table III, dose 50 μg
  Withdrawal, % of control: 9%
  Δt, °C.: -0.09 ± 0.58 °C
morphine-dependent mice [5]; dose-response experiments, Table III
  lowest dose still effective in blocking physical dependence on morphine: 5 μg per mouse
morphine-dependent mice [5]; naloxone-precipitated withdrawal, Tables II and III
  ability to block development of physical dependence on morphine: exhibited activity
morphine-dependent mice [6]; C57B1/6J, Z-Pro-D-Leu/morphine pellets, n=9, ICV morphine challenge
  Δt (15 min.): -2.12 ± 0.52
morphine-dependent mice [6]; C57B1/6J, Z-Pro-D-Leu/morphine pellets, n=9, ICV morphine challenge 24 hrs after pellet removal
  Δt (10 min.): -2.04 ± 0.42
morphine-dependent mice [6]; [8]
  Δt (10 min.): -0.75 ± 0.19
  Δt (15 min.): -1.00 ± 0.16
morphine-dependent mice [6]; C57B1/6J, Z-Pro-D-Leu/morphine, peptide day 3 only, n=6
  Jump Threshold: 2.12 ± 0.34
morphine-dependent mice [6]; [9]
  Δt (10 min.): -1.76 ± 0.33
  Δt (15 min.): -2.19 ± 0.41
morphine-dependent mice [6]; C57B1/6J, Z-Pro-D-Leu/placebo pellets, n=8
  Jump Threshold: 3.79 ± 0.39
morphine-dependent mice [6]; [10]
  Δt (10 min.): -1.85 ± 0.25
  Δt (15 min.): -1.88 ± 0.17
morphine-dependent mice [6]; C57B1/6J, Z-Pro-D-Leu/placebo, peptide day 3 only, n=6
  Jump Threshold: 4.05 ± 0.85
morphine-dependent mice [6]; [11]
  Δt (10 min.): -1.10 ± 0.29
  Δt (15 min.): -1.32 ± 0.34
morphine-dependent mice [6]; Swiss Webster, Z-Pro-D-Leu/morphine pellets, n=15
  Jump Threshold: 4.33 ± 0.54
morphine-dependent mice [6]; [12]
  Δt (10 min.): -1.16 ± 0.30
  Δt (15 min.): -1.48 ± 0.46
morphine-dependent mice [6]; Swiss Webster, Z-Pro-D-Leu/placebo pellets, n=8
  Jump Threshold: 4.18 ± 0.41
morphine-dependent mice [6]; peptide given during chronic morphine treatment
  response to ICV injection of morphine: not significantly different from morphine-naive mice
morphine-dependent mice [6]; peptide given only on the third day of pellet implantation
  response to ICV injection of morphine: did not effectively alter the manifestation of tolerance
morphine-dependent mice [7]; Table III, dose 0.5 μg
  Withdrawal, % of control: 100%
morphine-dependent mice [7]; Table III, dose 5 μg
  Withdrawal, % of control: 25%
  Δt, °C.: -0.05 ± 0.37 °C
morphine-dependent mice [7]; peptide injection only on the third day of morphine treatment
  body temperature response 30 min after naloxone: hypothermic response
morphine-dependent mice [7]; peptide/morphine treatment, multiple injections, naloxone 0.1-0.50 mg/kg IP
  body temperature response 30 min after naloxone: mild hyperthermia
